Laboratory results: US20240279520A1, “FLUORINE SUBSTITUTED ETHERS AND COMPOSITIONS, METHODS AND USES INCLUDING SAME” (Honeywell International Inc., priority 2022, published 2024)

Columns and labels:
Assay type in all cases: physicochemical
[1] = Boiling point of fluoroethers; conditions: for Boiling point: Table 2; for Bp: Table 5
Density of fluoroethers = conditions: Table 2
[2] = Experimental dielectric property measurements, Agilent 85070 Dielectric Probe; conditions: for Experimental Dk at 1 GHz / Experimental Loss Tangent at 1 GHZ: ambient pressure, approximately 23° C.; for Dielectric Constant (20 GHz): room temperature
Procedure: “Dielectric Constant” means the dielectric constant as measured at room temperature at 20 giga hertz (GHz).
Experimental dielectric property measurements were made on all liquids using the Agilent 85070 Dielectric Probe. All measurements were made at ambient pressure and room temperature (approximately 23° C.). Prior to making measurements, the system was calibrated from 1 GHz to 20 GHz with an open circuit, a short circuit, and DI water (@22.4° C.) standard. The result of the calibration is shown in the Table 5 below for DI H2O, and is consistent with DI water at 22.4° C. The accuracy of the probe is given as: Dielectric constant, er′=er′+/−0.05|er*| with er″=er″+/−0.05|er*| and (loss=er″/er′).

FC(F)OCC(F)(F)C(F)F [Compound 1, 3-(difluoromethoxy)-1,1,2,2-tetrafluoropropane]
Boiling point [1]: 76 °C
Bp [1]: 76 °C
Density (Density of fluoroethers): 1.3-1.7
Experimental Dk at 1 GHz [2]: 2.94
Experimental Loss Tangent at 1 GHZ [2]: 0.036
Dielectric Constant (20 GHz) [2]: 4.0

FC(F)OCC(F)(F)C(F)(F)F [Compound 2, 3-(difluoromethoxy)-1,1,1,2,2-pentafluoropropane]
Boiling point [1]: 46 °C
Bp [1]: 46 °C
Density (Density of fluoroethers): 1.3-1.7
Experimental Dk at 1 GHz [2]: 5.21
Experimental Loss Tangent at 1 GHZ [2]: 0.038
Dielectric Constant (20 GHz) [2]: 3.4

FC(F)OC(C(F)(F)F)C(F)(F)F [Compound 3, 2-(difluoromethoxy)-1,1,1,3,3,3-hexafluoropropane]
Boiling point [1]: 41 °C
Bp [1]: 41 °C
Density (Density of fluoroethers): 1.3-1.7
Dielectric Constant (20 GHz) [2]: <5

FC(F)OCC(F)(F)C(F)(F)C(F)(F)F [Compound 4, 4-(difluoromethoxy)-1,1,1,2,2,3,3-heptafluorobutane]
Boiling point [1]: 69 °C
Bp [1]: 69 °C
Density (Density of fluoroethers): 1.3-1.7
Experimental Dk at 1 GHz [2]: 4.51
Experimental Loss Tangent at 1 GHZ [2]: 0.054
Dielectric Constant (20 GHz) [2]: 2.8

O [DI Water, reference compound]
Bp [1]: 100 °C
Experimental Dk at 1 GHz [2]: 79.15
Experimental Loss Tangent at 1 GHZ [2]: 0.052
